Results from patent US8884061B2, “Compositions and methods of use of electron transport system inhibitors” (priority 2006, dated 2014).
≈ marks a conversion by molar mass, not a printed value.

What was measured:
M. tuberculosis H37Rv = test: MIC, agar (7H11) dilution method; type: cell-based; conditions: M. tuberculosis H37Rv
M. tuberculosis Kurono = test: MIC, agar (7H11) dilution method; type: cell-based; conditions: M. tuberculosis Kurono; agar (7H11) dilution
M. bovis BCG Tokyo = test: microbe, parasite or virus in culture; type: cell-based; conditions: M. bovis BCG Tokyo; agar (7H11) dilution
M. avium Flamingo = test: MIC, agar (7H11) dilution method; type: cell-based
[1] = test system: M. intracellularae ATCC 15984; test: MIC, agar (7H11) dilution method; type: cell-based
M. kansasii NIHJ1619 = test: MIC, agar (7H11) dilution method; type: cell-based
M. aurum = test: MIC, agar (7H11) dilution method; type: cell-based
M. fortuitum NIHJ1615 = test: MIC, agar (7H11) dilution method; type: cell-based
M. smegmatis Takeo = test: MIC, agar (7H11) dilution method; type: cell-based
S. aureus ATCC 29213 = test: MIC, other bacteria (Table 3); type: cell-based; conditions: inoculum size 10^6 CFU/ml
[2] = test system: S. aureus ATCC 43300 (MRSA); test: MIC, other bacteria (Table 3); type: cell-based; conditions: inoculum size 10^6 CFU/ml
VRSA 2441-T0041 = test: MIC, other bacteria (Table 3); type: cell-based, S. aureus; conditions: VRSA 2441-T0041, low level VCM-resistant; inoculum size 10^6 CFU/ml
VRSA 2441-T0044 = test: MIC, other bacteria (Table 3); type: cell-based, S. aureus; conditions: VRSA 2441-T0044, low level VCM-resistant; inoculum size 10^6 CFU/ml
MRSA 2441-05104 = test: MIC, other bacteria (Table 3); type: cell-based, S. aureus; conditions: inoculum size 10^6 CFU/ml
MRSA 2441-05112 = test: MIC, other bacteria (Table 3); type: cell-based, S. aureus; conditions: inoculum size 10^6 CFU/ml
MRSA 2441-05129 = test: MIC, other bacteria (Table 3); type: cell-based, S. aureus; conditions: inoculum size 10^6 CFU/ml
MRSA 2441-05223 = test: MIC, other bacteria (Table 3); type: cell-based, S. aureus; conditions: inoculum size 10^6 CFU/ml
MRSA 2441-05254 = test: MIC, other bacteria (Table 3); type: cell-based, S. aureus; conditions: inoculum size 10^6 CFU/ml
MRSA 2441-05262 = test: MIC, other bacteria (Table 3); type: cell-based, S. aureus; conditions: inoculum size 10^6 CFU/ml
[3] = test system: S. epidermidis ATCC 12228; test: MIC, other bacteria (Table 3); type: cell-based; conditions: inoculum size 10^6 CFU/ml
MRSE 2442-05030 = test: MIC, other bacteria (Table 3); type: cell-based, S. epidermidis; conditions: inoculum size 10^6 CFU/ml
MRSE 2442-05047 = test: MIC, other bacteria (Table 3); type: cell-based, S. epidermidis; conditions: inoculum size 10^6 CFU/ml
MRSE 2442-05053 = test: MIC, other bacteria (Table 3); type: cell-based, S. epidermidis; conditions: inoculum size 10^6 CFU/ml
MRSE 2442-05060 = test: MIC, other bacteria (Table 3); type: cell-based, S. epidermidis; conditions: inoculum size 10^6 CFU/ml
MRSE 2442-05110 = test: MIC, other bacteria (Table 3); type: cell-based, S. epidermidis; conditions: inoculum size 10^6 CFU/ml
MRSE 2442-05118 = test: MIC, other bacteria (Table 3); type: cell-based, S. epidermidis; conditions: inoculum size 10^6 CFU/ml
E. faecalis ATCC 29212 = test: MIC, other bacteria (Table 3); type: cell-based; conditions: inoculum size 10^6 CFU/ml
[4] = test system: E. faecalis ATCC 51299 (VRE); test: MIC, other bacteria (Table 3); type: cell-based; conditions: low level VCM-resistant, Van B, inoculum size 10^6 CFU/ml
[5] = test system: E. faecalis NCTC 12201 (VRE); test: MIC, other bacteria (Table 3); type: cell-based; conditions: high level VCM-resistant, Van A, inoculum size 10^6 CFU/ml
E. faecium ATCC 49224 = test: MIC, other bacteria (Table 3); type: cell-based; conditions: E. faecium ATCC 49224, GM-resistant; inoculum size 10^6 CFU/ml
[6] = test system: E. faecium NCTC 12203 (VRE); test: MIC, other bacteria (Table 3); type: cell-based; conditions: high level VCM-resistant, Van A, inoculum size 10^6 CFU/ml
E. coli ATCC 25922 = test: MIC, other bacteria (Table 3); type: cell-based; conditions: inoculum size 10^6 CFU/ml
K. pneumoniae ATCC 27736 = test: MIC, other bacteria (Table 3); type: cell-based; conditions: inoculum size 10^6 CFU/ml
P. mirabilis ATCC 4630 = test: MIC, other bacteria (Table 3); type: cell-based; conditions: inoculum size 10^6 CFU/ml
S. marsascens ATCC 14756 = test: MIC, other bacteria (Table 3); type: cell-based; conditions: inoculum size 10^6 CFU/ml
P. aeruginosa ATCC 27853 = test: MIC, other bacteria (Table 3); type: cell-based; conditions: inoculum size 10^6 CFU/ml

For C=CCN(C)CCCCCCCCOc1ccc(C(=O)c2ccc(Cl)cc2)c(Cl)c1 [Cpd #20], the “Minimum inhibitory concentrations (MIC)” value (M. tuberculosis H37Rv; table line r7 (1st of 5 so labelled)) was 6.25 µg/mL (≈ 13.9 µM), the “Minimum inhibitory concentrations (MIC)” value (M. tuberculosis H37Rv; table line r8 (2nd of 5 so labelled)) was 6.25 µg/mL (≈ 13.9 µM) and the “Minimum inhibitory concentrations (MIC)” value (M. tuberculosis H37Rv; table line r9 (3rd of 5 so labelled)) was 6.25 µg/mL (≈ 13.9 µM). For the same molecule, the “Minimum inhibitory concentrations (MIC)” value (M. tuberculosis H37Rv; table line r10 (4th of 5 so labelled)) was 6.25 µg/mL (≈ 13.9 µM), the “Minimum inhibitory concentrations (MIC)” value (M. tuberculosis H37Rv; table line r11 (5th of 5 so labelled)) was 6.25 µg/mL (≈ 13.9 µM) and the “Minimum inhibitory concentrations (MIC)” value (M. tuberculosis Kurono) was 6.25 µg/mL (≈ 13.9 µM). The “Minimum inhibitory concentrations (MIC)” value (M. bovis BCG Tokyo) was 6.25 µg/mL (≈ 13.9 µM), the “Minimum inhibitory concentrations (MIC)” value (M. avium Flamingo) was 12.5 µg/mL (≈ 27.9 µM) and the “Minimum inhibitory concentrations (MIC)” value [1] was 12.5 µg/mL (≈ 27.9 µM). The “Minimum inhibitory concentrations (MIC)” value (M. kansasii NIHJ1619) was 12.5 µg/mL (≈ 27.9 µM), the “Minimum inhibitory concentrations (MIC)” value (M. aurum) was 12.5 µg/mL (≈ 27.9 µM) and the “Minimum inhibitory concentrations (MIC)” value (M. fortuitum NIHJ1615) was >25 µg/mL. For the same molecule, the “Minimum inhibitory concentrations (MIC)” value (M. smegmatis Takeo) was 25 µg/mL (≈ 55.7 µM), the “MIC” value (S. aureus ATCC 29213) was 25 µg/mL (≈ 55.7 µM) and the “MIC” value [2] was 25 µg/mL (≈ 55.7 µM). The “MIC” value (VRSA 2441-T0041) was 50 µg/mL (≈ 111 µM), the “MIC” value (VRSA 2441-T0044) was 50 µg/mL (≈ 111 µM) and the “MIC” value (MRSA 2441-05104) was 25 µg/mL (≈ 55.7 µM). The “MIC” value (MRSA 2441-05112) was 25 µg/mL (≈ 55.7 µM), the “MIC” value (MRSA 2441-05129) was 25 µg/mL (≈ 55.7 µM) and the “MIC” value (MRSA 2441-05223) was 25 µg/mL (≈ 55.7 µM). The “MIC” value (MRSA 2441-05254) was 25 µg/mL (≈ 55.7 µM), the “MIC” value (MRSA 2441-05262) was 25 µg/mL (≈ 55.7 µM) and the “MIC” value [3] was 25 µg/mL (≈ 55.7 µM). The “MIC” value (MRSE 2442-05030) was 12.5 µg/mL (≈ 27.9 µM), the “MIC” value (MRSE 2442-05047) was 12.5 µg/mL (≈ 27.9 µM) and the “MIC” value (MRSE 2442-05053) was 12.5 µg/mL (≈ 27.9 µM). For the same molecule, the “MIC” value (MRSE 2442-05060) was 12.5 µg/mL (≈ 27.9 µM), the “MIC” value (MRSE 2442-05110) was 12.5 µg/mL (≈ 27.9 µM) and the “MIC” value (MRSE 2442-05118) was 12.5 µg/mL (≈ 27.9 µM). For the same molecule, the “MIC” value (E. faecalis ATCC 29212) was 12.5 µg/mL (≈ 27.9 µM), the “MIC” value [4] was 25 µg/mL (≈ 55.7 µM) and the “MIC” value [5] was 12.5 µg/mL (≈ 27.9 µM). The “MIC” value (E. faecium ATCC 49224) was 12.5 µg/mL (≈ 27.9 µM), the “MIC” value [6] was 12.5 µg/mL (≈ 27.9 µM) and the “MIC” value (E. coli ATCC 25922) was >100 µg/mL. For the same molecule, the “MIC” value (K. pneumoniae ATCC 27736) was >100 µg/mL, the “MIC” value (P. mirabilis ATCC 4630) was >100 µg/mL and the “MIC” value (S. marsascens ATCC 14756) was >100 µg/mL. For the same molecule, the “MIC” value (P. aeruginosa ATCC 27853) was >100 µg/mL.
